The values below come from patent US11732256B2, “Multivalent glycopeptides that tightly bind to target proteins” (Brandeis University, priority 2013, dated 2023).

The test system of this assay is HIV broadly neutralizing antibody 2G12. Description: Radioactive 2G12-glycopeptide binding assay with protein G magnetic beads (binding curve and KD determination). The conditions noted are these: for Fmax [%]: Table 6 mutants/truncations, radioactive binding assay; for 2G12 binding after truncation: truncated clones. The method, then:
The sequences were obtained by cloning non-selected library DNA. […] FIG. 9B is an SDS-PAGE analysis of the click reaction of the non-selected peptides. Both peptides were transcribed and translated from PCR-amplified DNA in Pure System that contains 0.02 mg/mL T7 RNA polymerase and additional 1 mM each NTP. The peptides were labeled with 3H-histidine and the bands were visualized by fluorography.
For round 10 winners, 0.12-0.2 nM radioactive glycopeptides were incubated with 0, 0.25, 0.5, 1, 2, 4, 8, 16, 32 or 64 nM 2G12 in 40 μL of selection buffer at room temperature for 1 h. Then, the solution was added to 0.12 mg of pre-equilibrated Dynabeads Protein G and tumbled at room temperature for 30 min. The supernatant was removed and the beads were washed with 3×40 μL of selection buffer. The radioactivities of the supernatant and wash solutions were measured by liquid scintillation counting as unbound fractions. […] The beads were resuspended in 40 μL of selection buffer, heated at 70° C. for 30 min to elute the bound glycopeptides, chilled on ice for 5 min, and tumbled at room temperature for 10 min. The supernatant was removed, and the beads were washed with 40 μL of selection buffer and resuspended in 40 μL of selection buffer. The radioactivities of these solutions and suspensions were measured by liquid scintillation counting separately and the values were combined as apparent bound fractions. […] All experiments were done at least in triplicate. KDs were calculated as described in the footnote of Table 4 (below).

*1 amine or outer side, *2 acyl side, *3 side chain or, on linkers, in order; H or OH if unused. Where a SMILES comes first, the peptide text is derived from it. [ ]: non-standard residue; d: D form. The star is where a group is joined. X1 = O=C([C@H](CCc1cn(C2CCC(OC3O[C@H](CO[C@H]4O[C@H](CO[C@H]5O[C@H](CO)[C@@H](O)[C@H](O)[C@@H]5O[C@H]5O[C@H](CO)[C@@H](O)[C@H](O)[C@@H]5O)[C@@H](O)[C@H](O[C@H]5O[C@H](CO)[C@@H](O)[C@H](O)[C@@H]5O[C@H]5O[C@H](CO)[C@@H](O)[C@H](O)[C@@H]5O)[C@@H]4O)[C@@H](O)[C@H](O[C@H]4O[C@H](CO)[C@@H](O)[C@H](O)[C@@H]4O[C@H]4O[C@H](CO)[C@@H](O)[C@H](O)[C@@H]4O[C@H]4O[C@H](CO)[C@@H](O)[C@H](O)[C@@H]4O)[C@@H]3O)CC2)nn1)N[*:1])[*:2]; For = O=C*

In the case of `CC[C@H](C)[C@H](NC(=O)[C@H](CCCNC(=N)N)NC(=O)[C@H](Cc1c[nH]cn1)NC(=O)[C@H](Cc1ccccc1)NC(=O)[C@H](CC(C)C)NC(=O)[C@H](C)NC(=O)[C@H](CC(C)C)NC(=O)[C@H](C)NC(=O)[C@H](Cc1ccc(O)cc1)NC(=O)[C@H](CCc1cn(C2CCC(OC3O[C@H](CO[C@H]4O[C@H](CO[C@H]5O[C@H](CO)[C@@H](O)[C@H](O)[C@@H]5O[C@H]5O[C@H](CO)[C@@H](O)[C@H](O)[C@@H]5O)[C@@H](O)[C@H](O[C@H]5O[C@H](CO)[C@@H](O)[C@H](O)[C@@H]5O[C@H]5O[C@H](CO)[C@@H](O)[C@H](O)[C@@H]5O)[C@@H]4O)[C@@H](O)[C@H](O[C@H]4O[C@H](CO)[C@@H](O)[C@H](O)[C@@H]4O[C@H]4O[C@H](CO)[C@@H](O)[C@H](O)[C@@H]4O[C@H]4O[C@H](CO)[C@@H](O)[C@H](O)[C@@H]4O)[C@@H]3O)CC2)nn1)NC(=O)[C@H](CC(=O)O)NC(=O)[C@@H](NC(=O)[C@@H](NC(=O)[C@H](CCC(N)=O)NC(=O)[C@H](CCc1cn(C2CCC(OC3O[C@H](CO[C@H]4O[C@H](CO[C@H]5O[C@H](CO)[C@@H](O)[C@H](O)[C@@H]5O[C@H]5O[C@H](CO)[C@@H](O)[C@H](O)[C@@H]5O)[C@@H](O)[C@H](O[C@H]5O[C@H](CO)[C@@H](O)[C@H](O)[C@@H]5O[C@H]5O[C@H](CO)[C@@H](O)[C@H](O)[C@@H]5O)[C@@H]4O)[C@@H](O)[C@H](O[C@H]4O[C@H](CO)[C@@H](O)[C@H](O)[C@@H]4O[C@H]4O[C@H](CO)[C@@H](O)[C@H](O)[C@@H]4O[C@H]4O[C@H](CO)[C@@H](O)[C@H](O)[C@@H]4O)[C@@H]3O)CC2)nn1)NC(=O)[C@H](CCCCN)NC(=O)[C@H](CC(C)C)NC(=O)[C@H](C)NC(=O)[C@H](C)NC(=O)[C@H](CCc1cn(C2CCC(OC3O[C@H](CO[C@H]4O[C@H](CO[C@H]5O[C@H](CO)[C@@H](O)[C@H](O)[C@@H]5O[C@H]5O[C@H](CO)[C@@H](O)[C@H](O)[C@@H]5O)[C@@H](O)[C@H](O[C@H]5O[C@H](CO)[C@@H](O)[C@H](O)[C@@H]5O[C@H]5O[C@H](CO)[C@@H](O)[C@H](O)[C@@H]5O)[C@@H]4O)[C@@H](O)[C@H](O[C@H]4O[C@H](CO)[C@@H](O)[C@H](O)[C@@H]4O[C@H]4O[C@H](CO)[C@@H](O)[C@H](O)[C@@H]4O[C@H]4O[C@H](CO)[C@@H](O)[C@H](O)[C@@H]4O)[C@@H]3O)CC2)nn1)NC(=O)[C@H](CCc1cn(C2CCC(OC3O[C@H](CO[C@H]4O[C@H](CO[C@H]5O[C@H](CO)[C@@H](O)[C@H](O)[C@@H]5O[C@H]5O[C@H](CO)[C@@H](O)[C@H](O)[C@@H]5O)[C@@H](O)[C@H](O[C@H]5O[C@H](CO)[C@@H](O)[C@H](O)[C@@H]5O[C@H]5O[C@H](CO)[C@@H](O)[C@H](O)[C@@H]5O)[C@@H]4O)[C@@H](O)[C@H](O[C@H]4O[C@H](CO)[C@@H](O)[C@H](O)[C@@H]4O[C@H]4O[C@H](CO)[C@@H](O)[C@H](O)[C@@H]4O[C@H]4O[C@H](CO)[C@@H](O)[C@H](O)[C@@H]4O)[C@@H]3O)CC2)nn1)NC=O)C(C)C)[C@@H](C)O)C(=O)N[C@@H](CC(C)C)C(=O)NCC(=O)N[C@@H](CO)C(=O)NCC(=O)N[C@@H](CO)C(=O)N[C@@H](CC(C)C)C(=O)NCC(=O)N[C@@H](Cc1c[nH]cn1)C(=O)N[C@@H](Cc1c[nH]cn1)C(=O)N[C@@H](Cc1c[nH]cn1)C(=O)N[C@@H](Cc1c[nH]cn1)C(=O)N[C@@H](Cc1c[nH]cn1)C(=O)N[C@@H](Cc1c[nH]cn1)C(=O)N[C@@H](CCCNC(=N)N)C(=O)N[C@@H](CC(=O)O)C(=O)N[C@@H](Cc1ccc(O)cc1)C(=O)N[C@@H](CCCCN)C(=O)N[C@@H](CC(=O)O)C(=O)N[C@@H](CC(=O)O)C(=O)N[C@@H](CC(=O)O)C(=O)N[C@@H](CC(=O)O)C(=O)N[C@@H](CCCCN)C(=O)O` (some centres unmarked) [Clone 10F2-Δ11, XXAALKXQVTDXYALALFHRIL], the “Fmax [%]” value is on record as 70% and the “2G12 binding after truncation” value was “tight binding”. In the case of `CC[C@H](C)[C@H](NC(=O)[C@H](CCC(N)=O)NC(=O)[C@H](CCCCN)NC(=O)[C@H](CC(C)C)NC(=O)[C@H](Cc1c[nH]cn1)NC(=O)[C@H](CC(C)C)NC(=O)[C@@H](NC(=O)[C@H](CC(=O)O)NC(=O)[C@H](CCc1cn(C2CCC(OC3O[C@H](CO[C@H]4O[C@H](CO[C@H]5O[C@H](CO)[C@@H](O)[C@H](O)[C@@H]5O[C@H]5O[C@H](CO)[C@@H](O)[C@H](O)[C@@H]5O)[C@@H](O)[C@H](O[C@H]5O[C@H](CO)[C@@H](O)[C@H](O)[C@@H]5O[C@H]5O[C@H](CO)[C@@H](O)[C@H](O)[C@@H]5O)[C@@H]4O)[C@@H](O)[C@H](O[C@H]4O[C@H](CO)[C@@H](O)[C@H](O)[C@@H]4O[C@H]4O[C@H](CO)[C@@H](O)[C@H](O)[C@@H]4O[C@H]4O[C@H](CO)[C@@H](O)[C@H](O)[C@@H]4O)[C@@H]3O)CC2)nn1)NC=O)[C@@H](C)O)C(=O)NCC(=O)NCC(=O)N[C@@H](CCc1cn(C2CCC(OC3O[C@H](CO[C@H]4O[C@H](CO[C@H]5O[C@H](CO)[C@@H](O)[C@H](O)[C@@H]5O[C@H]5O[C@H](CO)[C@@H](O)[C@H](O)[C@@H]5O)[C@@H](O)[C@H](O[C@H]5O[C@H](CO)[C@@H](O)[C@H](O)[C@@H]5O[C@H]5O[C@H](CO)[C@@H](O)[C@H](O)[C@@H]5O)[C@@H]4O)[C@@H](O)[C@H](O[C@H]4O[C@H](CO)[C@@H](O)[C@H](O)[C@@H]4O[C@H]4O[C@H](CO)[C@@H](O)[C@H](O)[C@@H]4O[C@H]4O[C@H](CO)[C@@H](O)[C@H](O)[C@@H]4O)[C@@H]3O)CC2)nn1)C(=O)N1CCC[C@H]1C(=O)N[C@@H](CC(N)=O)C(=O)N[C@@H](CS)C(=O)N[C@H](C(=O)N[C@H](C(=O)N[C@@H](CCC(N)=O)C(=O)N[C@@H](CCC(N)=O)C(=O)N[C@@H](CC(=O)O)C(=O)N[C@H](C(=O)N[C@@H](CCCNC(=N)N)C(=O)N[C@@H](CCc1cn(C2CCC(OC3O[C@H](CO[C@H]4O[C@H](CO[C@H]5O[C@H](CO)[C@@H](O)[C@H](O)[C@@H]5O[C@H]5O[C@H](CO)[C@@H](O)[C@H](O)[C@@H]5O)[C@@H](O)[C@H](O[C@H]5O[C@H](CO)[C@@H](O)[C@H](O)[C@@H]5O[C@H]5O[C@H](CO)[C@@H](O)[C@H](O)[C@@H]5O)[C@@H]4O)[C@@H](O)[C@H](O[C@H]4O[C@H](CO)[C@@H](O)[C@H](O)[C@@H]4O[C@H]4O[C@H](CO)[C@@H](O)[C@H](O)[C@@H]4O[C@H]4O[C@H](CO)[C@@H](O)[C@H](O)[C@@H]4O)[C@@H]3O)CC2)nn1)C(=O)N[C@H](C(=O)N[C@@H](CO)C(=O)N[C@H](C(=O)N1CCC[C@H]1C(=O)N[C@@H](Cc1ccc(O)cc1)C(=O)N[C@H](C(=O)N[C@@H](Cc1ccc(O)cc1)C(=O)N[C@H](C(=O)N[C@@H](Cc1c[nH]c2ccccc12)C(=O)N1CCC[C@H]1C(=O)NCC(=O)N[C@@H](CO)C(=O)NCC(=O)N[C@@H](CO)C(=O)N[C@@H](CC(C)C)C(=O)NCC(=O)N[C@@H](Cc1c[nH]cn1)C(=O)N[C@@H](Cc1c[nH]cn1)C(=O)N[C@@H](Cc1c[nH]cn1)C(=O)N[C@@H](Cc1c[nH]cn1)C(=O)N[C@@H](Cc1c[nH]cn1)C(=O)N[C@@H](Cc1c[nH]cn1)C(=O)N[C@@H](CCCNC(=N)N)C(=O)N[C@@H](CC(=O)O)C(=O)N[C@@H](Cc1ccc(O)cc1)C(=O)N[C@@H](CCCCN)C(=O)N[C@@H](CC(=O)O)C(=O)N[C@@H](CC(=O)O)C(=O)N[C@@H](CC(=O)O)C(=O)N[C@@H](CC(=O)O)C(=O)N[C@@H](CCCCN)C(=O)O)[C@@H](C)O)[C@@H](C)O)[C@@H](C)CC)[C@@H](C)O)C(C)C)[C@@H](C)O)[C@@H](C)CC` (some centres unmarked) [Clone 10F3, XDTLHLKQIGGXPNCITQQDVRXTSIPYTYTWP], the “Tolerance of Cys substitutions for 2G12 binding” value (Cys mutated to Ser) is “tolerated”. For `CC[C@H](C)[C@H](NC(=O)[C@H](CO)NC(=O)[C@H](CCCNC(=N)N)NC(=O)[C@H](CCc1cn(C2CCC(OC3O[C@H](CO[C@H]4O[C@H](CO[C@H]5O[C@H](CO)[C@@H](O)[C@H](O)[C@@H]5O[C@H]5O[C@H](CO)[C@@H](O)[C@H](O)[C@@H]5O)[C@@H](O)[C@H](O[C@H]5O[C@H](CO)[C@@H](O)[C@H](O)[C@@H]5O[C@H]5O[C@H](CO)[C@@H](O)[C@H](O)[C@@H]5O)[C@@H]4O)[C@@H](O)[C@H](O[C@H]4O[C@H](CO)[C@@H](O)[C@H](O)[C@@H]4O[C@H]4O[C@H](CO)[C@@H](O)[C@H](O)[C@@H]4O[C@H]4O[C@H](CO)[C@@H](O)[C@H](O)[C@@H]4O)[C@@H]3O)CC2)nn1)NC=O)C(=O)N1CCC[C@H]1C(=O)N[C@@H](Cc1c[nH]c2ccccc12)C(=O)N[C@@H](Cc1ccc(O)cc1)C(=O)N[C@H](C(=O)N[C@@H](Cc1ccc(O)cc1)C(=O)N[C@@H](CCCNC(=N)N)C(=O)N[C@@H](Cc1c[nH]c2ccccc12)C(=O)N[C@@H](CC(C)C)C(=O)N1CCC[C@H]1C(=O)N[C@@H](CC(N)=O)C(=O)NCC(=O)N[C@@H](CO)C(=O)NCC(=O)N[C@@H](CO)C(=O)N[C@@H](CC(C)C)C(=O)NCC(=O)N[C@@H](Cc1c[nH]cn1)C(=O)N[C@@H](Cc1c[nH]cn1)C(=O)N[C@@H](Cc1c[nH]cn1)C(=O)N[C@@H](Cc1c[nH]cn1)C(=O)N[C@@H](Cc1c[nH]cn1)C(=O)N[C@@H](Cc1c[nH]cn1)C(=O)N[C@@H](CCCNC(=N)N)C(=O)N[C@@H](CC(=O)O)C(=O)N[C@@H](Cc1ccc(O)cc1)C(=O)N[C@@H](CCCCN)C(=O)N[C@@H](CC(=O)O)C(=O)N[C@@H](CC(=O)O)C(=O)N[C@@H](CC(=O)O)C(=O)N[C@@H](CC(=O)O)C(=O)N[C@@H](CCCCN)C(=O)O)[C@@H](C)O` (some centres unmarked) [Clone 10V1-Δ19, XRSIPWYTYRWLPN] (For-[X1]RSIPWYTYRWLPNGSGSLGHHHHHHRDYKDDDDK-OH; C-terminus assumed), the “Fmax [%]” value turned out to be 20% and the “2G12 binding after truncation” value was “tight binding”.
